This is an account of results in patent US10722514B2 (FLX Bio, Inc., priority 2017, dated 2020).

Structures can show the parent of a compound that is named as a salt. Where two headings read alike, the source gives them in different places. Where only a bound is given, the exact number is not on record here.

This assay deals with T1, recombinant full-length USP7 (Homo sapiens, UniProt Q93009).
T1 construct: A 25 μl reaction volume containing recombinant full-length USP7 (62 pM)
Description: USP7-mediated ubiquitin-rhodamine cleavage assay. Type of assay: biochemical. Particulars: recombinant full-length USP7 62 pM, ubiquitin-rhodamine 100 nM, 1 hour reaction at room temperature. Summed up:
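Rhodamine fluorescence read-out after acetic acid stop; IC50 by 4-parameter nonlinear regression. Enzyme at 62 pM, substrate ubiquitin-rhodamine 100 nM final, 1 h at room temperature in the dark, after 30 min compound preincubation. Buffer: HEPES pH 7.3, NaCl, TCEP, BSA; 1% DMSO.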

The mark [1] stands for this setting: 30-minute pre-incubation, read-out: Potency (USP7 IC50).
The mark [2] stands for this setting: 30-minute incubation with compound, read-out: Potency: USP7 IC50.

T1 sequence (Q93009 whole entry): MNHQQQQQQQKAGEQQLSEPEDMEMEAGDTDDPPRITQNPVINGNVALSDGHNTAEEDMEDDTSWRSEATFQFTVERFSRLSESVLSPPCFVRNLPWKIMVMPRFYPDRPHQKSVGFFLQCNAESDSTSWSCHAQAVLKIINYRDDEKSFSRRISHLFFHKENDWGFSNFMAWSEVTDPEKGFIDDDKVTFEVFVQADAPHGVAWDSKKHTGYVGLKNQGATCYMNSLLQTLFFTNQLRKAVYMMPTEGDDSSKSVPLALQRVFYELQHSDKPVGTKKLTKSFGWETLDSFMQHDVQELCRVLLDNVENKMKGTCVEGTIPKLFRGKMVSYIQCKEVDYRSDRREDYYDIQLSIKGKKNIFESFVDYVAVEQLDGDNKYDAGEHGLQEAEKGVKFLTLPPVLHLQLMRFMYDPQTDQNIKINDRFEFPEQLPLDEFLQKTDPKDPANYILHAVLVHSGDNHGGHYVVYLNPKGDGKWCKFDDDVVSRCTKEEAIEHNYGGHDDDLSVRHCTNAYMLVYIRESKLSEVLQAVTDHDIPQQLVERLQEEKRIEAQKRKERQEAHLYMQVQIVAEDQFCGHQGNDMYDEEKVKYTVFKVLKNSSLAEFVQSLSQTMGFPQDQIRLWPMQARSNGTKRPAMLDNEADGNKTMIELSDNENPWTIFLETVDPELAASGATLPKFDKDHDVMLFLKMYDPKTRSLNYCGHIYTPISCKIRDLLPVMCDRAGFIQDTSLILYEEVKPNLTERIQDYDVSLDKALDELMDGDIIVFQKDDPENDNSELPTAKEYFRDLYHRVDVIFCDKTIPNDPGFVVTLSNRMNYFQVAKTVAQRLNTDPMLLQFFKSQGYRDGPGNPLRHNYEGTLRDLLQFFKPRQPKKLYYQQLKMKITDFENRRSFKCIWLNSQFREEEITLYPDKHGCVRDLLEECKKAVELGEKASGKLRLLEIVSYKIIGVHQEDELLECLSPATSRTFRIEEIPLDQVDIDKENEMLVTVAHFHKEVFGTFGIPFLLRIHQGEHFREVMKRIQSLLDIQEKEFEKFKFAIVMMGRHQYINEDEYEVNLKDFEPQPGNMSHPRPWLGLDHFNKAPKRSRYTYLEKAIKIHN

Take `Cc1cc(Cl)cc(-c2ccnc3cc(Cn4c(=O)ccn(C)c4=O)sc23)c1O[C@@H]1CN(C)C[C@@H]1F` [Example 458, 3-[[7-[5-chloro-2-[(3R,4S)-4-fluoro-1-methyl-pyrrolidin-3-yl]oxy-3-methyl-phenyl]thieno[3,2-b]pyridin-2-yl]methyl]-1-methyl-pyrimidine-2,4-dione; 2,2,2-trifluoroacetic acid]: the IC50 under setting [1] is less than 1000 nM.

For `Cc1cc(Cl)cc(-c2ncnc3cc(CN4C(=O)C5C(C4=O)C5(C)C)sc23)c1OC1CNCC1(C)C` (stereo not drawn) [Example 371, 3-[[4-[5-chloro-2-(4,4-dimethylpyrrolidin-3-yl)oxy-3-methyl-phenyl]thieno[3,2-d]pyrimidin-6-yl]methyl]-6,6-dimethyl-3-azabicyclo[3.1.0]hexane-2,4-dione], the IC50 under setting [2] was less than 1000 nM.

As for `Cc1cc(Cl)cc(-c2ccnc3cc(Cn4c(=O)ccn(CC(F)(F)F)c4=O)sc23)c1O[C@H]1C[C@H](N)C1` [Example 277, 3-((7-(2-((1r,3r)-3-Aminocyclobutoxy)-5-chloro-3-methylphenyl)thieno[3,2-b]pyridin-2-yl)methyl)-1-(2,2,2-trifluoroethyl)pyrimidine-2,4(1H,3H)-dione], the IC50 under setting [2] was less than 1000 nM.

Regarding `Cc1cc(Cl)cc(-c2ccnc3cc(Cn4c(=O)ccn(CC(F)(F)F)c4=O)sc23)c1OCCN` [Example 576, 3-[[7-[2-(2-aminoethoxy)-5-chloro-3-methyl-phenyl]thhieno[3,2-b]pyridin-2-yl]methyl]-1-(2,2,2-trifluoroethyl)pyrimidine-2,4-dione; 2,2,2-trifluoroacetic acid], the IC50 under setting [1] is less than 1000 nM.

As for `O=C1CCC(=O)N1Cc1cc2nccc(-c3cc(Cl)ccc3O[C@@H]3CNC[C@@H]3F)c2s1` [Example 119, 1-((7-(5-Chloro-2-(((3R,4S)-4-fluoropyrrolidin-3-yl)oxy)phenyl)thieno[3,2-b]pyridin-2-yl)methyl)pyrrolidine-2,5-dione], the IC50 under setting [2] lay in the range of 1000 to 10000 nM.

As for `Cc1cc(Cl)cc(-c2ccnc3cc(CN4C(=O)C5CCC5C4=O)sc23)c1O[C@@H]1CN(C(=O)OC(C)(C)C)C[C@@H]1F` (stereo partly drawn) [Example 355, tert-butyl (3R,4S)-3-[4-chloro-2-[2-[(2,4-dioxo-3-azabicyclo[3.2.0]heptan-3-yl)methyl]thieno[3,2-b]pyridin-7-yl]-6-methyl-phenoxy]-4-fluoro-pyrrolidine-1-carboxylate; 2,2,2-trifluoroacetic acid], the IC50 under setting [2] is less than 1000 nM.

In the case of `Cc1c(F)c(Cl)cc(-c2ccnc3cc(Cn4c(=O)ccn(C)c4=O)sc23)c1O[C@H]1CCCNC1` [Example 435, 3-[[7-[5-chloro-4-fluoro-3-methyl-2-[[(3S)-3-piperidyl]oxy]phenyl]thieno[3,2-b]pyridin-2-yl]methyl]-1-methyl-pyrimidine-2,4-dione dihydrochloride], the IC50 under setting [1] lay in the range of 1000 to 10000 nM.

On to `Cc1cc(Cl)cc(-c2ccnc3cc(Cn4c(=O)ccn(C(C)C)c4=O)sc23)c1O[C@H]1CCNC[C@@H]1F` [Example 563, 3-[[7-[5-chloro-2-[[(3S,4S)-3-fluoro-4-piperidyl]oxy]-3-methyl-phenyl]thieno[3,2-b]pyridin-2-yl]methyl]-1-isopropyl-pyrimidine-2,4-dione], for which the IC50 under setting [1] was less than 1000 nM.

As for `Cc1cc(Cl)cc(-c2ccnc3cc(Cn4c(=O)ccn(CC(F)(F)F)c4=O)sc23)c1O[C@H]1CC[C@](C)(N)C1` [Example 597, 3-[[7-[2-[(1S,3S)-3-amino-3-methyl-cyclopentoxy]-5-chloro-3-methyl-phenyl]thieno[3,2-b]pyridin-2-yl]methyl]-1-(2,2,2-trifluoroethyl)pyrimidine-2,4-dione; 2,2,2-trifluoroacetic acid], the IC50 under setting [1] was less than 1000 nM.

In the case of `Cc1cc([N+](=O)[O-])cc(-c2ccnc3cc(Cn4c(=O)ccn(CC(F)(F)F)c4=O)sc23)c1Oc1ccnn1C` [Example 404, 3-[[7-[3-methyl-2-(2-methylpyrazol-3-yl)oxy-5-nitro-phenyl]thieno[3,2-b]pyridin-2-yl]methyl]-1-(2,2,2-trifluoroethyl)pyrimidine-2,4-dione; 2,2,2-trifluoroacetic acid], the IC50 under setting [1] is less than 1000 nM.

In the case of `Cc1cc(Cl)cc(-c2ccnc3cc(CN4C(=O)C5C(C4=O)C5(C)C)sc23)c1O[C@@H]1CCNC[C@@H]1F` (stereo partly drawn) [Example 391, 3-[[7-[5-chloro-2-[[(3S,4R)-3-fluoro-4-piperidyl]oxy]-3-methyl-phenyl]thieno[3,2-b]pyridin-2-yl]methyl]-6,6-dimethyl-3-azabicyclo[3.1.0]hexane-2,4-dione; 2,2,2-trifluoroacetic acid], the IC50 under setting [2] is less than 1000 nM.

As to `Cc1cc(Cl)cc(-c2ccnc3cc(CO)sc23)c1OC1CCCNC1=O` (stereo not drawn) [Example 200, 3-(4-Chloro-2-(2-(hydroxymethyl)thieno[3,2-b]pyridin-7-yl)-6-methylphenoxy)piperidin-2-one], the IC50 under setting [2] is more than 30000 nM.

`Cc1cc(Cl)cc(-c2ccnc3cc(CN4C(=O)C5C(C4=O)C5(C)C)sc23)c1O[C@@H]1CNC[C@@H]1C(F)F` (stereo partly drawn) [Example 389, 3-[[7-[5-chloro-2-[(3S,4S)-4-(difluoromethyl)pyrrolidin-3-yl]oxy-3-methyl-phenyl]thieno[3,2-b]pyridin-2-yl]methyl]-6,6-dimethyl-3-azabicyclo[3.1.0]hexane-2,4-dione dihydrochloride]: the IC50 under setting [2] is less than 1000 nM.

Consider `Cc1cc(Cl)cc(-c2ccnc3cc(CN4C(=O)CCC4=O)sc23)c1O[C@@H]1C[C@H]2CN[C@@H]1C2` [Example 298, 1-[[7-[2-[[(1S,4R,5R)-3-azabicyclo[2.2.1]heptan-5-yl]oxy]-5-chloro-3-methyl-phenyl]thieno[3,2-b]pyridin-2-yl]methyl]pyrrolidine-2,5-dione], for which the IC50 under setting [2] is less than 1000 nM.

Take `Cc1cc(Cl)cc(-c2ncnc3cc(Cn4c(=O)ccn(C(C)C)c4=O)sc23)c1OC1CC(N)C1` (stereo not drawn) [Example 541, 3-[[4-[2-(3-aminocyclobutoxy)-5-chloro-3-methyl-phenyl]thieno[3,2-d]pyrimidin-6-yl]methyl]-1-isopropyl-pyrimidine-2,4-dione; 2,2,2-trifluoroacetic acid]: under setting [1], the IC50 was less than 1000 nM.

Take “3-[[7-[5-chloro-3-methyl-2-[[(3S,6S)-6-methyl-3-piperidyl]oxy]phenyl]thieno[3,2-b]pyridin-2-yl]methyl]-6,6-dimethyl-3-azabicyclo[3.1.0]hexane-2,4-dione; 2,2,2-tirfluoroacetic acid [Example 304]”: under setting [2], the IC50 is less than 1000 nM.

Regarding `Cc1cc(Cl)cc(-c2ccnc3cc(Cn4c(=O)ccn(CC(F)(F)F)c4=O)sc23)c1OC1(C(F)(F)F)CCCNC1` (stereo not drawn) [Example 274, 3-((7-(5-Chloro-3-methyl-2-((3-(trifluoromethy)piperidin-3-yl)oxy)phenyl)thieno[3,2-b]pyridin-2-yl)methyl)-1-(2,2,2-trifluoroethyl)pyrimidine-2,4(1H,3H)-dione], under setting [2], the IC50 is less than 1000 nM.

Regarding `Cc1cc(Cl)cc(-c2ncnc3cc(Cn4c(=O)ccn(CC(F)(F)F)c4=O)sc23)c1O[C@H]1CCCNCC1` [Example 580, 3-[[4-[2-[(4S)-azepan-4-yl]oxy-5-chloro-3-methyl-phenyl]thieno[3,2-d]pyrimidin-6-yl]methyl]-1-(2,2,2-trifluoroethyl)pyrimidine-2,4-dione; 2,2,2-trifluoroacetic acid], under setting [1], the IC50 is less than 1000 nM.

Turning to `CCN1CCC(Oc2c(C)cc(Cl)cc2-c2ccnc3cc(CN4C(=O)CCC4=O)sc23)CC1` [Example 176, 1-((7-(5-Chloro-2-((1-ethylpiperidin-4-yl)oxy)-3-methylphenyl)thieno[3,2-b]pyridin-2-yl)methyl)pyrrolidine-2,5-dione], the IC50 under setting [2] is less than 1000 nM.

Consider `Cc1cc(Cl)cc(-c2ccnc3cc(CN4C(=O)OC(C)(C)C4=O)sc23)c1O[C@@H]1CNC[C@@H]1F` [Example 133, 3-((7-(5-Chloro-2-(((3R,4S)-4-fluoropyrrolidin-3-yl)oxy)-3-methylphenyl)thieno[3,2-b]pyridin-2-yl)methyl)-5,5-dimethyloxazolidine-2,4-dione], for which, under setting [2], the half-inhibitory concentration (IC50) was less than 1000 nM.

For `Cc1cc(Cl)cc(-c2ccnc3cc(Cn4c(=O)ccn(CC(F)(F)F)c4=O)sc23)c1OC1CC(N2CCC(O)C2)C1` (stereo not drawn) [Example 672, 3-[[7-[5-chloro-2-[3-(3-hydroxypyrrolidin-1-yl)cyclobutoxy]-3-methyl-phenyl]thieno[3,2-b]pyridin-2-yl]methyl]-1-(2,2,2-trifluoroethyl)pyrimidine-2,4-dione; 2,2,2-trifluoroacetic acid], under “30-minute incubation, read-out: Potency (USP7 IC50)”, the IC50 is less than 1000 nM.

As to `Cc1cc(Cl)cc(-c2ccnc3ccsc23)c1O[C@H]1CCCNC1` [Example 167, (S)-7-(5-Chloro-3-methyl-2-(piperidin-3-yloxy)phenyl)thieno[3,2-b]pyridine], the 50% inhibitory concentration (IC50) under setting [2] fell in the range of 10000 to 30000 nM.

In the case of `Cc1cc(Cl)cc(-c2ccnc3cc(Cn4c(=O)ccn(CC(F)(F)F)c4=O)sc23)c1O[C@@H]1CCN(C(=O)C(F)(F)F)C[C@@H]1C` [Example 609, 3-[[7-[5-chloro-3-methyl-2-[[(3S,4R)-3-methyl-1-(2,2,2-trifluoroacetyl)-4-piperidyl]oxy]phenyl]thieno[3,2-b]pyridin-2-yl]methyl]-1-(2,2,2-trifluoroethyl)pyrimidine-2,4-dione], the IC50 under setting [1] is less than 1000 nM.

As to `Cc1cc(Cl)cc(-c2ccnc3cc(Cn4c(=O)ccn(C)c4=O)sc23)c1O[C@@H]1CCN(C(C)C)C[C@@H]1C` [Example 488, 3-[[7-[5-chloro-2-[[(3S,4R)-1-isopropyl-3-methyl-4-piperidyl]oxy]-3-methyl-phenyl]thieno[3,2-b]pyridin-2-yl]methyl]-1-methyl-pyrimidine-2,4-dione], under setting [1], the IC50 was less than 1000 nM.
